According to patent US7691901B2, “Carotenoid analogs or derivatives for the inhibition and amelioration of inflammation” (Cardax Pharmaceuticals Inc., priority 2004, dated 2010):

Test system: lipid peroxidation products
Experiment: Thioglycollate/Zymosan-induced peritonitis model: lipid oxidation products in peritoneal lavage by electrospray ionization tandem mass spectrometry
Assay type: in vivo, mice
Protocol: Thioglycollate/Zymosan—Induced Peritonitis Model: Wild-type mice were administered either 500 mg/kg body weight of disodium disuccinate astaxanthin (ddAst/Cardax™) in an oil emulsion vehicle, or normal saline (NS) as a negative control, by oral gavage at 24 hours intervals beginning 7 days prior to the induction of peritonitis. Peritonitis was induced experimentally as follows: mice were injected intraperitoneally with 1 ml of 4% by weight thioglycollate (Tg) broth, to induce the recruitment of proinflammatory cells to the peritoneum. Either 16 hours or 72 hours after recruitment, approximately half of the mice were injected intraperitoneally with 250 mg/kg body weight of zymosan (Z) for a further 4 hours. The mice not receiving zymosan underwent no further treatment. Peritoneal lavage was performed in control animals or animals treated with (ddAst) 16 hours post Tg injection, or 20 h following the combination of both Tg injection (16 hours) followed by Z injection (4 hours), as indicated (Tg/Z). Peritoneal lavages were performed with phosphate-buffered saline containing antioxidant (0.1 mM butylated hydroxytoluene (BHT)) and 2 mM of the metal chelator diethylenetriamine pentaacetic acid (DTPA) according to established practices in the art. The lavage suspensions were transferred to screw-capped tubes under an argon atmosphere, and immediately centrifuged at 1000 rpm in a table top microcentrifuge for 10 min at 4° C. to remove whole cells and debris. All analyses of lipid peroxidation products was performed on cell-free lavage supernatants. Cell pellets were resuspended in phosphate-buffered saline containing 0.1 mM BHT and 0.1 mM DTPA, and differential cell counts (macrophages, monocytes, eosinophils, lymphocytes, neutrophils, and erythrocytes) were performed on cytospun preparations of isolated cells according to established procedures in the art.
Electrospray ionization tandem mass spectrometry was used to simultaneously quantify individual molecular species of HETEs, HPETEs, the prostaglandin PGF2α, F2-isoprostanoids, hydroxy- and hydroperoxy-octadecadienoic acids (H(P)ODEs), and their precursors, arachidonic acid (AA) and linoleic acid (LA). Additionally, the molar ratios of o-tyrosine (oY/F). were measured.

[1] = 72 Hour Thioglycollate/4 Hour Zymosan, 500 mg/kg oral gavage, P-VALUE 0.772 NP
[2] = 72 Hour Thioglycollate/4 Hour Zymosan, 500 mg/kg oral gavage, P-VALUE 0.862 NP
[3] = 72 Hour Thioglycollate/4 Hour Zymosan
[4] = 72 Hour Thioglycollate, 500 mg/kg oral gavage, P-VALUE 0.117
[5] = 72 Hour Thioglycollate, 500 mg/kg oral gavage, P-VALUE 0.275
[6] = 72 Hour Thioglycollate, 500 mg/kg oral gavage, P-VALUE 0.325 NP
[7] = 72 Hour Thioglycollate, 500 mg/kg oral gavage, P-VALUE 0.349
[8] = 72 Hour Thioglycollate, 500 mg/kg oral gavage, P-VALUE 0.393
[9] = 72 Hour Thioglycollate, 500 mg/kg oral gavage, P-VALUE 0.512
[10] = 72 Hour Thioglycollate, 500 mg/kg oral gavage, P-VALUE 0.524 NP
[11] = 72 Hour Thioglycollate, 500 mg/kg oral gavage, P-VALUE 0.542
[12] = 72 Hour Thioglycollate, 500 mg/kg oral gavage, P-VALUE 0.603 NP
[13] = 72 Hour Thioglycollate, 500 mg/kg oral gavage, P-VALUE 0.726
[14] = 72 Hour Thioglycollate, 500 mg/kg oral gavage, P-VALUE 0.741
[15] = 72 Hour Thioglycollate, 500 mg/kg oral gavage, P-VALUE 0.793
[16] = 72 Hour Thioglycollate, 500 mg/kg oral gavage, P-VALUE 0.862 NP
[17] = 72 Hour Thioglycollate, 500 mg/kg oral gavage, P-VALUE 0.968
[18] = 16 hours Tg/4 hour Z, 500 mg/kg oral gavage
[19] = 16 hours Tg, 500 mg/kg oral gavage
[20] = 72 hours Tg/4 hour Z, 500 mg/kg oral gavage
[21] = Baseline, 500 mg/kg oral gavage, P-VALUE 0.081 NP
[22] = Baseline, 500 mg/kg oral gavage, P-VALUE 0.158 NP
[23] = Baseline, 500 mg/kg oral gavage, P-VALUE 0.271
[24] = Baseline, 500 mg/kg oral gavage, P-VALUE 0.290
[25] = Baseline, 500 mg/kg oral gavage, P-VALUE 0.298 NP
[26] = Baseline, 500 mg/kg oral gavage, P-VALUE 0.302
[27] = Baseline, 500 mg/kg oral gavage, P-VALUE 0.391
[28] = Baseline, 500 mg/kg oral gavage, P-VALUE 0.418
[29] = Baseline, 500 mg/kg oral gavage, P-VALUE 0.471 NP
[30] = Baseline, 500 mg/kg oral gavage, P-VALUE 0.810 NP
[31] = Baseline, 500 mg/kg oral gavage, P-VALUE 0.843
[32] = Baseline, 500 mg/kg oral gavage, P-VALUE 0.920
[33] = Baseline, 500 mg/kg oral gavage, P-VALUE 1.000 NP

## CC1=C(/C=C/C(C)=C/C=C/C(C)=C/C=C/C=C(C)/C=C/C=C(C)/C=C/C2=C(C)C(=O)C(OC(=O)CCC(=O)O)CC2(C)C)C(C)(C)CC(OC(=O)CCC(=O)O)C1=O (stereo not shown) [Cardax, disodium disuccinate astaxanthin]
[1]
  9-HODE MEAN: 4.747 pmol
  9-HODE MEDIAN: 3.683 pmol
[2]
  11-HETE MEAN: 0.837 pmol
  11-HETE MEDIAN: 0.703 pmol
[3]
  5-oxo-ETE (pmol), MEAN: 0.148 pmol
  5-oxo-ETE (ratio), MEAN: 0.063 ratio
  8-iso-F2a (pmol), MEAN: 0.057 pmol
  8-iso-F2a/AA (ratio), MEAN: 0.017 ratio
  5-oxo-ETE (pmol), MEDIAN: 0.116 pmol
  5-oxo-ETE (ratio), MEDIAN: 0.048 ratio
  8-iso-F2a (pmol), MEDIAN: 0.037 pmol
  8-iso-F2a/AA (ratio), MEDIAN: 0.011 ratio
[4]
  9-HETE MEAN: 0.274 pmol
  9-HETE MEDIAN: 0.299 pmol
[5]
  9-HODE/LA (ratio) MEAN: 0.180
  9-HODE/LA (ratio) MEDIAN: 0.109
[6]
  5-HETE MEAN: 0.129 pmol
  5-HETE MEDIAN: 0.082 pmol
[7]
  9-HODE MEAN: 1.831 pmol
  9-HODE MEDIAN: 1.585 pmol
[8]
  13-HODE MEAN: 5.552 pmol
  13-HODE MEDIAN: 5.520 pmol
[9]
  11-HETE/AA (ratio) MEAN: 0.151
  11-HETE/AA (ratio) MEDIAN: 0.132
[10]
  Arachidonic Acid MEAN: 836.27 pmol
  Arachidonic Acid MEDIAN: 758.43 pmol
[11]
  PGF2a/AA (ratio) MEAN: 0.030
  PGF2a/AA (ratio) MEDIAN: 0.033
[12]
  Linoleic Acid MEAN: 14242 pmol
  Linoleic Acid MEDIAN: 10076 pmol
[13]
  Prostaglandin F2α (PGF2α) MEAN: 0.021 pmol
  Prostaglandin F2α (PGF2α) MEDIAN: 0.018 pmol
[14]
  11-HETE MEAN: 0.112 pmol
  11-HETE MEDIAN: 0.100 pmol
[15]
  5-HETE/AA (ratio) MEAN: 0.170
  5-HETE/AA (ratio) MEDIAN: 0.082
[16]
  9-HETE/AA (ratio) MEAN: 0.348
  9-HETE/AA (ratio) MEDIAN: 0.241
[17]
  13-HODE/AA (ratio) MEAN: 0.504
  13-HODE/AA (ratio) MEDIAN: 0.363
72 Hour Thioglycollate
  5-oxo-ETE (pmol), MEAN: 0.026 pmol
  5-oxo-ETE (ratio), MEAN: 0.021 ratio
  8-iso-F2a (pmol), MEAN: 0.010 pmol
  8-iso-F2a/AA (ratio), MEAN: 0.016 ratio
  5-oxo-ETE (pmol), MEDIAN: 0.000 pmol
  5-oxo-ETE (ratio), MEDIAN: 0.000 ratio
  8-iso-F2a (pmol), MEDIAN: 0.000 pmol
  8-iso-F2a/AA (ratio), MEDIAN: 0.000 ratio
72 Tg/4 hour Z, 500 mg/kg oral gavage
  5-oxo-EET (pmol) compared to NS: significant decrease
[18]
  8-iso-F2α (pmol) compared to NS: significant decrease
  8-iso-F2α/AA ratio compared to NS: significant decrease
[19]
  AA (pmol) compared to NS: significantly higher
  LA (pmol) compared to NS: significantly higher
[20]
  5-HETE/AA ratio compared to NS: significant decrease
  5-oxo-EET (ratio) compared to NS: significant decrease
  9-HETE/AA ratio compared to NS: significant decrease
  9-HODE/LA (ratio) compared to NS: significant decrease
  11-HETE/AA ratio compared to NS: significant decrease
  AA (pmol) compared to NS: significantly higher
  LA (pmol) compared to NS: significantly higher
  PGF2α/AA ratio compared to NS: significant decrease
[21]
  PGF2a/AA (ratio) MEAN: 0.033
  PGF2a/AA (ratio) MEDIAN: 0.000
[22]
  Prostaglandin F2α (PGF2α) MEAN: 0.036 pmol
  Prostaglandin F2α (PGF2α) MEDIAN: 0.000 pmol
[23]
  13-HODE MEAN: 26.618 pmol
  13-HODE MEDIAN: 23.554 pmol
[24]
  11-HETE/AA (ratio) MEAN: 0.219
  11-HETE/AA (ratio) MEDIAN: 0.218
[25]
  9-HODE/LA (ratio) MEAN: 0.212
  9-HODE/LA (ratio) MEDIAN: 0.168
[26]
  5-HETE/AA (ratio) MEAN: 0.129
  5-HETE/AA (ratio) MEDIAN: 0.145
[27]
  13-HODE/AA (ratio) MEAN: 2.976
  13-HODE/AA (ratio) MEDIAN: 2.848
[28]
  9-HETE/AA (ratio) MEAN: 0.879
  9-HETE/AA (ratio) MEDIAN: 0.887
[29]
  5-HETE MEAN: 0.096 pmol
  5-HETE MEDIAN: 0.047 pmol
  11-HETE MEAN: 0.121 pmol
  11-HETE MEDIAN: 0.073 pmol
[30]
  9-HETE MEAN: 0.510 pmol
  9-HETE MEDIAN: 0.272 pmol
[31]
  Linoleic Acid MEAN: 8239.5 pmol
  Linoleic Acid MEDIAN: 5875.6 pmol
[32]
  9-HODE MEAN: 1.791 pmol
  9-HODE MEDIAN: 1.579 pmol
[33]
  Arachidonic Acid MEAN: 587.46 pmol
  Arachidonic Acid MEDIAN: 323.65 pmol
Baseline
  5-oxo-ETE (pmol), MEAN: 0.020 pmol
  5-oxo-ETE (ratio), MEAN: 0.033 ratio
  8-iso-F2a (pmol), MEAN: 0.156 pmol
  8-iso-F2a/AA (ratio), MEAN: 0.307 ratio
  5-oxo-ETE (pmol), MEDIAN: 0.000 pmol
  5-oxo-ETE (ratio), MEDIAN: 0.000 ratio
  8-iso-F2a (pmol), MEDIAN: 0.175 pmol
  8-iso-F2a/AA (ratio), MEDIAN: 0.266 ratio
